Results as given in US20260273007A1, “FEED ADDITIVE FOR IMPROVING PERFORMANCE OF FARMING ANIMALS” (Nutreco IP Assets B.V., priority 2023, published 2026).

What was measured:
[1] = tested on: E. maxima; experiment: E. maxima infection of chickens: performance and fecal oocyst shedding (Example 8); assay type: in vivo; conditions: E. maxima-infected chickens, 90 mg/kg feed of monensin
Source text: Newly hatched chickens from Longnecker's hatchery, Elizabethtown, PA were housed in a Petersime brooder units and provided with feed and water ad libitum. All chickens were weighed and allocated to a cage. Per treatment, 60 chickens (5 birds/cage=12 replication) were used. Initial body weight was the same among treatments. For E. maxima infection freshly propagated E. maxima (ARS strain) were used to infect the birds. On d 14 after hatch, the birds were infected with 10,000 E. maxima oocysts through oral gavage. The experimental treatments were the following: [1]=Negative control (NC), non infected and untreated chicken; [2]=Positive control (PC)=[1]+infection; […] [4]=[2]+55 ppm of dried Glycyrrhiza glabra leaves; [5]=[2]+160 ppm of dried Glycyrrhiza glabra leaves. Monensin is the current standard used to control coccidiosis. […] Oocyst shedding: Faeces from each group was collected separately from 6-8 days post infection (dpi) for coccidiosis. To count coccidia oocysts, various dilutions were made initially to determine the optimum dilutions for enumeration of oocysts for each sample. Oocysts were counted microscopically using a McMaster counting chamber using a sodium chloride flotation method. The total number of oocysts shed per chicken were calculated using the formula: total oocysts/bird=(oocyst count×dilution factor×fecal sample volume/counting chamber volume)/number of birds per cage.

[2] = tested on: Alpha mouse liver 12 cells (AML12); assay type: cell-based

Compound | ADFI d 15 to 19 (0 to 4 dpi) [1] | ADFI d 15 to 21 (0 to 6 dpi) [1] | ADFI d 15 to 23 (0 to 8 dpi) [1] | ADG d 15 to 19 (0 to 4 dpi) [1] | ADG d 15 to 21 (0 to 6 dpi) [1] | ADG d 15 to 23 (0 to 8 dpi) [1] | BW d 19 (4 dpi) [1] | BW d 21 (6 dpi) [1] | BW d 23 (8 dpi) [1] | FCR d 15 to 19 (0 to 4 dpi) [1] | FCR d 15 to 21 (0 to 6 dpi) [1] | FCR d 15 to 23 (0 to 8 dpi) [1] | Lesion score [1] | Number of oocysts (fecal oocyst shedding, FIG. 2) ([1]; faeces 6-8 dpi) | Cell viability (%) [2]
CC[C@@]1([C@@H]2O[C@@H]([C@H]3O[C@@](O)(CO)[C@H](C)C[C@@H]3C)C[C@@H]2C)CC[C@H]([C@]2(C)CC[C@]3(C[C@H](O)[C@@H](C)[C@@H]([C@@H](C)[C@@H](OC)[C@H](C)C(=O)O)O3)O2)O1 [MO, monensin] | 90 g | 93.5 g | 94.3 g | 76.3 g | 72.9 g | 79.3 g | 890 g | 1,023 g | 1,220 g | 1.191 | 1.31 | 1.21 | reduced | reduced | –
Aflatoxin B1 | – | – | – | – | – | – | – | – | – | – | – | – | – | – | 51.8%
